# According to a melting point compilation (Tetko et al.; mined from patent text by program, amines drawn as free bases though some values may be those of a salt):
row,Compound,melting point [°C]
1,Nc1ncnc2c1cnn2Cc1oc2ccc(Br)cc2c(=O)c1-c1ccccc1,236 to 240
2,CCCCNS(=O)(=O)CCCCn1c(COCC)nc2c(N)nc3ccccc3c21,148 to 149
3,Cc1cc(Oc2cc(C(F)(F)F)nn2C)nc(C(=O)O)c1,168
4,NCCN1CCC(Nc2nc3ccccc3n2Cc2ccc(CO)o2)CC1,165
5,COC(=O)c1ccc(NC(C)=O)c(CO)c1,60
6,COc1ccc(-c2nnc3c4ccccc4c(CCl)nn23)cc1,203 to 206
7,Cc1cccc(C(=O)NCc2cccc3c2C(=O)N(C2CCC(=O)NC2=O)C3=O)n1 (centres undefined),197 to 199
8,O=C(Nc1ccc(C2(F)CCN(C(=O)OCc3ccccc3)CC2)c(F)c1)OCc1ccccc1,116 to 118
9,CCOC(=O)CC(=O)N(C)c1ccccc1[N+](=O)[O-],54 to 55
10,OCCCCCCC(O)C(c1ccc(Cl)cc1Cl)n1ccnc1 (centres undefined),74 to 76
11,C[C@@H](n1ncn(-c2ccc(-n3ncn(-c4ccc(OCC(F)(F)C(F)F)cc4)c3=O)cc2)c1=O)[C@@]1(c2ccc(F)cc2F)CO1,181 to 183
12,CC(=O)OCc1cc(=O)c(Oc2ccc(F)cc2)c(-c2ccc(S(C)(=O)=O)cc2)o1,180
13,CC(=O)OCc1c(Br)cccc1N1CCc2c(sc3c2CC(C)(C)C3)C1=O,126 to 128
14,N#Cc1cnn2c1NCC=C2c1cccc(C(F)(F)F)c1,175 to 177
15,CN(c1ccc(O)cc1)c1nc2ccc(Br)cc2o1,195
16,Clc1ccc(SC(Cn2ccnc2)C23CC4CC(CC(C4)C2)C3)cc1Cl (centres undefined),179 to 181
17,CC(C)OCCN1C(=O)N2CCOC2(c2ccccc2)c2cc([N+](=O)[O-])ccc21 (centres undefined),123 to 124
18,COc1cccc(OC)c1-c1cc(C(=O)NC2(C(=O)O)C3CC4CC(C3)CC2C4)nn1-c1ccc(CNC(C)=O)c2ccccc12 (centres undefined),211
19,Cc1ccc(S(=O)(=O)OCC2COc3ccc4[nH]c(=O)[nH]c4c3O2)cc1 (centres undefined),202 to 204
20,N#Cc1cnn2c(C(F)(F)F)cc(-c3ccccc3F)nc12,165
21,O=C1CCCN1C(=O)Oc1ccccc1,120 to 122
22,C=CC(=O)N[C@H](C)C(=O)OC1(C)CCC(C(C)C)CC1 (some centres undefined),79
23,CC(C)(C)c1nc(/C=C/c2cn(-c3ccccc3)nc2O)cs1,209 to 211
24,CC(C)n1nc(-c2c(OCCN3C(=O)c4ccccc4C3=O)nc(N)nc2-c2ccccc2)ccc1=O,232
25,CC(c1cc(Cl)cc(Cl)c1O)c1cc(F)cc(CO)c1O (centres undefined),148

row,Compound,melting point [°C]
1,COc1ccc(C(=O)Nc2ccccc2)cc1NC(=S)Nc1cccc(C)c1,168 to 171
2,Cc1oc(-c2ccccc2)nc1CCOc1cccc2sccc12,130 to 132
3,COc1cc(C(C)C)c(Oc2cnc(N[C@H](C)CO)nc2N)cc1Cl,111 to 117
4,O=Cc1ccc(C2=NOC(c3cc(Cl)cc(Cl)c3)(C(F)(F)F)C2)cc1Cl (centres undefined),129 to 130
5,COC(=O)C(CC(N)C(=O)O)CC(N)N1C=CC=CC1 (centres undefined),240 to 242
6,Cc1ccccc1OCCC(=O)N(C)c1ccccc1,76
7,Cc1cccc(-c2nc3ccc(Cl)cn3c2-c2ccnc(-c3ccc(CN4CCOCC4)cc3)c2)n1,157
8,Cc1c(CC(=O)OCCO[N+](=O)[O-])cc(-c2ccc(S(C)(=O)=O)cc2)n1-c1ccccc1,124 to 126
9,CC(C)c1[nH]n(-c2c(Cl)cc(Cl)cc2Cl)c2nc(Cc3ccc(N=C=O)cc3)nc(=O)c1-2,233 to 235
10,CCc1cccc2c1S(=O)(=O)c1ccccc1O2,101 to 103
11,Cc1csc2cc(C(=O)O)ccc12,230 to 232
12,CCCOc1cc(CCCOc2c(CC(=O)O)cccc2OC)n(Cc2ccc(Cl)cc2)n1,131 to 132
13,CC(=O)Nc1nc2c(Oc3cc(N4CCN([C@H](C)c5ccc(F)cc5)CC4)ncn3)cccc2s1,244 to 246
14,Cc1ccccc1-c1nc(COc2cccc3cc(NS(=O)(=O)C(F)(F)F)ccc23)co1,127 to 130
15,O=C(N[C@@H](CC1CCCCC1)C(=O)N[C@@H](Cc1ccccc1)C(=O)CSCc1ccco1)OCc1ccccc1,124 to 125
16,CN1CCC(OC(c2cccc(C#CCCCN)c2)c2nc3ccccc3[nH]2)CC1 (centres undefined),82
17,CC(=O)Nc1ccc(CN(C)C)c(O)c1,133 to 135
18,NC(=O)c1ccccc1-c1n[nH]c(-c2ccccc2)n1,222 to 225
19,NN=C1C(=O)Nc2cccc(Cl)c21,235 to 236
20,CC(=Cc1ccc2ccc3cccc4ccc1c2c34)c1ccc(Cl)cc1,162 to 164
21,Cc1cn(C)c2c1C(=O)CC(c1ccccc1)C2 (centres undefined),155 to 156
22,O=C(O)C(=O)Nc1ccc2c(=O)c3c(oc2c1)C(=Cc1ccc2c(c1)OCO2)CC3,300 to 305
23,NS(=O)(=O)c1ccc(-n2nc(CCCNC(=O)NC3CCCCCC3)cc2-c2ccccc2)cc1,164 to 170
24,CC(=O)N1c2ccccc2Sc2cc(O)c3ccccc3c21,230
25,O=C(Nc1ccc2ccc(Oc3ccccc3)nc2n1)C1=CCC=CC1,95

row,Compound,melting point [°C]
1,CC1(CSc2ccccc2)COC2(CCCCCCCCCCC2)OO1 (centres undefined),89
2,O=C1c2ccccc2C(=O)N1CCCN1CCC(c2noc3cc(F)ccc23)CC1,128 to 130
3,CC(=O)SCC1CCCCCCC(C(=O)N2C(=O)OCC2Cc2ccccc2)NC1=O (centres undefined),65 to 66
4,CC(Oc1ccc(N(C)c2cnc3cc(Cl)ccc3n2)cc1)C(=O)O (centres undefined),204
5,CCC[C@H]1CC[C@H](c2ccc(OCC)c(C#N)c2)CC1,32
6,COc1cccc(OC2CN([C@H]3CC[C@@H](c4cc5cc(C#N)ccc5[nH]4)CC3)C2)c1,126 to 127
7,CC(C)(C)OC(=O)N1CCN(c2ccc(N)cc2C#N)CC1,145
8,CN(C)NC(=O)NCCCCC1CCSS1 (centres undefined),60 to 61
9,CC(=O)OCC1OC(Oc2ccsc2Cc2ccc(OC(F)(F)F)cc2)C(OC(C)=O)C(OC(C)=O)C1OC(C)=O (centres undefined),113 to 114
10,O=C(c1cc2cc(Br)ccc2o1)C12CC3CC(CC(C3)C1)C2,115 to 117
11,CC(=O)Nc1cccc(NC(C)=O)c1,190 to 191
12,CC(C)(C)OC(=O)NN(C(=O)OC(C)(C)C)C1(c2cccnc2)CCCCC1=O (centres undefined),123 to 125
13,Cc1ccc(S(=O)(=O)Nc2ccccc2)cc1,96 to 98
14,COCOc1cccc(ON=C(C)C)c1C#N,62 to 64
15,COc1ccc(S)c(C(=O)O)c1,173 to 178
16,COC(=O)c1ccc(=O)n(CCNC(=O)c2ccc(C)nc2)c1,184 to 185
17,COC[C@H]1CCCN1C(=O)c1cc(-c2ccccc2)c(=O)n2ccc3ccc(Cl)cc3c12,137 to 140
18,CCCCC(=O)NCCCSCCO,7
19,O=C(OO)c1ccc([N+](=O)[O-])cc1,251 to 252
20,O=C1c2cccc3cc4ccccc4c(c23)C(=O)N1CCCNCCCNCCCN1C(=O)c2cccc3cc4ccccc4c(c23)C1=O,140
21,OC(CCn1ccnc1)(c1ccccc1)c1ccc2sc3ccccc3c2c1 (centres undefined),88 to 91
22,CC#Cc1ccc(-c2ccc(-c3ccc(CCCCC)cc3)c(F)c2F)cc1,103
23,O=c1cc(CO)n(Cc2ccccc2)cc1OCc1ccccc1,146 to 147
24,CN1C=C2c3ccccc3Cc3ccccc3C2C1 (centres undefined),128 to 131
25,CC(C)(C)C1CCC(C2=C(O)C(=O)c3ccccc3C2=O)CC1 (centres undefined),123 to 126

row,Compound,melting point [°C]
1,Cc1c(Cl)c(C(=O)O)cc([N+](=O)[O-])c1Cl,152 to 154
2,O=[N+]([O-])c1cccc2c(Br)nccc12,187 to 188
3,C#Cc1ccc(C(=O)NC(C#N)OCC)cc1 (centres undefined),104 to 106
4,CCCc1cc2c(=O)[nH]c(C(=O)OCC)nc2s1,169 to 170
5,Nc1ncnc2c1ncn2Cc1oc2ccc(F)cc2c(=O)c1-c1ccccc1,207 to 209
6,CCN(CC)CCN1C(=O)c2cc(OC)c3[nH]c4ccc(O)cc4c3c2C1=O,226 to 228
7,COc1cccc(NS(=O)(=O)c2ccc(NC3=C(Cl)C(=O)c4ccccc4C3=O)cc2)c1,213 to 216
8,COc1cc(Br)cc2cc(C(C)=O)oc12,107 to 109
9,CC(C)(C)CNS(=O)(=O)c1cccc(NC(=O)c2cnn3c(C(F)F)cc(-c4ccc(C(F)(F)F)cc4)nc23)c1,208
10,C#Cc1cccc(Nc2ncnc3cc4c(cc23)OCO4)c1,> 350
11,COc1ccc2c(c1Br)CCC1C(=O)NC(=O)C21 (centres undefined),243 to 245
12,COCCNC(=O)c1ccnc(-c2cccc3cc(Cc4cccc(C(F)(F)F)c4)sc23)c1F,94 to 95
13,CCOc1cc(O[Si](C)(C)C(C)(C)C)c(C)c(C(=O)OCc2ccc([N+](=O)[O-])cc2)c1C,75 to 76
14,Nc1ccc(-c2nc3cc(OCc4ccccc4)ccc3s2)c(Cl)c1,119 to 121
15,Cc1c(Br)nc(Nc2ccc(C#N)cc2)c(=O)n1C,254 to 255
16,CNc1ccc(Cl)cc1-c1nnc(C(F)(F)F)n1CC(=O)N1CCOCC1,152 to 153
17,CC(=O)NCC1CC1c1c(Cl)ccc2nn(C)cc12 (centres undefined),149 to 150
18,CC(C)COc1c(-c2ccc(S(C)(=O)=O)c(F)c2)cnn(-c2cccc(Cl)c2)c1=O,180 to 183
19,CCn1ncnc1COc1nn2c(-c3ccc(F)cc3F)nncc2c1C(C)(C)C,145
20,CC(C)C1=C(C#N)C(c2cccc3nocc23)c2c[nH]nc2N1 (centres undefined),245
21,CCOC(=O)C(=O)Nc1cc([N+](=O)[O-])c2ccccc2c1NC(=O)C(=O)OCC,183 to 184
22,CC(=NN(C)C(=O)c1ccccc1)c1ccncc1,128
23,CCOC(=O)C1(Br)Oc2cc(OC(C)=O)ccc2OC1Br (centres undefined),131
24,O=S(=O)(Cl)c1nc2nc(OCC(F)(F)F)ccn2n1,91 to 96
